For experiment [1], the target named is T1, hNTS1 (Homo sapiens, UniProt P30989).
T1 construct: expressed in transfected cells; host or cells: CHO-K1
The experiment in a line: Radioligand competition binding with [3H]NT, membranes of CHO-K1 cells expressing hNTS1. To be noted: for hNTS1 Selectivity: Table 2, hNTS1 over hNTS2; for binding / Kd at hNTS1 in words: text b54. Here is the method: CHO-K1 cells that had been stably transfected separately with the hNTS1 or hNTS2 genes were cultured in 150 mm (500 cm^2) Petri plates with 35 ml of Dulbecco's modified Eagle's medium containing 100 μM minimal essential medium nonessential amino acids (Life Technologies, Inc.) supplemented with 5% (v/v) FetalClone II bovine serum product (Hyclone Labs, Logan, Utah). […] The cellular pellet (in Tris-HCl buffer) was stored at […] until the radioligand binding was performed.
For use in binding assays, crude membrane preparations were prepared by centrifugation of the cellular pellet at 35,600×g for 10 min. The supernatant was decanted and discarded, and the cellular pellet was resuspended in 1 ml of Tris-HCl buffer followed by homogenization with a Brinkmann Polytron at setting 5.5 for 15 s. Centrifugation was repeated as above, the supernatant was decanted and discarded, and the cellular pellet was resuspended in 1 ml of Tris-HCl buffer followed by homogenization. Centrifugation was repeated a third time, the supernatant was discarded, and the final cellular pellet was suspended in 0.5-2.5 ml of Tris-HCl buffer. Protein concentration of the membrane preparation was estimated by the method of Lowry et al. using bovine serum albumin as a standard.
Incubation was at 20° C. for 40 min. The assay was routinely terminated by addition of ice-cold 0.9% NaCl (5×1.5 ml), followed by rapid filtration through a GF/B filter strip that had been pretreated with 0.2% or 2% polyethyleneimine. Details of binding assays have been described previously. […] Data were analyzed using the LIGAND program.

The target in experiment [2] is T2, hNTS2 (Homo sapiens, UniProt O95665).
T2 construct: expressed in transfected cells; host or cells: CHO-K1
T2 sequence (O95665 whole entry): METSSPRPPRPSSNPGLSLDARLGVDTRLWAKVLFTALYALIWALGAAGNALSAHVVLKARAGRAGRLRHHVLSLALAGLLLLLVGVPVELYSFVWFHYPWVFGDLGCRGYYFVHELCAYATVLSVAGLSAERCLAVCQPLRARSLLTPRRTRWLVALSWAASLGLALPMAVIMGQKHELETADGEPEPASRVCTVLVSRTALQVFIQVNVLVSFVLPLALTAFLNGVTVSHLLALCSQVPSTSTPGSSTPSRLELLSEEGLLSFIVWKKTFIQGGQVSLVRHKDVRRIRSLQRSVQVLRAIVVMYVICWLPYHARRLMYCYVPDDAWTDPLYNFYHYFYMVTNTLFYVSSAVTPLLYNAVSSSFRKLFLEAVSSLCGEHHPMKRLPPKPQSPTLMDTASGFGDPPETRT
The experiment in a line: Radioligand competition binding with [3H]NT, membranes of CHO-K1 cells expressing hNTS2. To be noted: for hNTS2 Selectivity: hNTS2 over hNTS1. Background: In a radioligand displacement assay an active substance lowers the binding of a labelled ligand.
Protocol: CHO-K1 cells that had been stably transfected separately with the hNTS1 or hNTS2 genes were cultured in 150 mm (500 cm^2) Petri plates with 35 ml of Dulbecco's modified Eagle's medium containing 100 μM minimal essential medium nonessential amino acids (Life Technologies, Inc.) supplemented with 5% (v/v) FetalClone II bovine serum product (Hyclone Labs, Logan, Utah). CHO cells (subculture 7-15) were harvested at confluence by aspiration of the medium, followed by a wash with ice-cold 50 mM Tris-HCl buffer, pH=7.4, which was discarded, resuspension in 5-15 ml of Tris-HCl, scraping the cells with a plastic spatula into a centrifuge tube, and collection of cells by centrifugation at 300×g for 5 min at 4° C., in a GPR centrifuge (Beckman Instruments, Fullerton, Calif.). The cellular pellet (in Tris-HCl buffer) was stored at −180° C. until the radioligand binding was performed.
Incubation was at 20° C. for 40 min. The assay was routinely terminated by addition of ice-cold 0.9% NaCl (5×1.5 ml), followed by rapid filtration through a GF/B filter strip that had been pretreated with 0.2% or 2% polyethyleneimine. […] Data were analyzed using the LIGAND program.
Curves were generated using the LIGAND program. […] Data are the means of duplicate determinations and are representative results from one of at least three independent experiments.

[3] abbreviates: read-out: hNTS1 Geometric Mean ∀ SEM (equilibrium dissociation constant Kd).
Where [4] appears, read: Table 2, read-out: hNTS2 Geometric Mean ∀ SEM (equilibrium dissociation constant Kd).
Setting [5] is: text b54, read-out: Kd at hNTS2.

SMILES strings stand for the structures. Where two headings read alike, the source gives them in different places. Where a SMILES comes first, the peptide text is derived from it. [ ]: non-standard residue; d: D form. 1Nal = N[C@@H](Cc1cccc2ccccc12)C(=O)O; pGlu = O=C1CC[C@@H](C(=O)O)N1; dOrn = NCCC[C@@H](N)C(=O)O; Orn = NCCC[C@H](N)C(=O)O

T1 sequence (P30989 whole entry): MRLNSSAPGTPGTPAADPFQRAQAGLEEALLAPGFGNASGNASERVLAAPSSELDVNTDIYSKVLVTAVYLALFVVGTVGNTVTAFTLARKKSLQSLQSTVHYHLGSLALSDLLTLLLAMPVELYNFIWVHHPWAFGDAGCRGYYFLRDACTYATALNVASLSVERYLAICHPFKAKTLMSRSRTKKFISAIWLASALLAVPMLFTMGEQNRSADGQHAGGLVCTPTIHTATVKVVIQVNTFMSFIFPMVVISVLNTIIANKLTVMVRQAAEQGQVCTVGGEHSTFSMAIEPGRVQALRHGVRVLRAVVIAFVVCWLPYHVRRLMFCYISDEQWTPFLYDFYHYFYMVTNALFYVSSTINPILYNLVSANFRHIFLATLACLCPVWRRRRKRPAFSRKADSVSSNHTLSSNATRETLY

For `CC[C@H](C)[C@H](NC(=O)[C@H](Cc1ccc(O)cc1)NC(=O)[C@@H]1CCCN1C(=O)[C@@H](N)CCCN)C(=O)N[C@@H](CC(C)C)C(=O)O` [NT34, [L-Orn^9]NT(9-13)] (H-[Orn]PYIL-OH; N-terminus and C-terminus assumed), in experiment [1], the “hNTS1 Selectivity” value is 4.0. In addition, the Kd – broadly, the concentration at which binding is half-saturated – in experiment [1] (setting [3]) worked out at 300 ± 50 nM; in experiment [2] (setting [4]) it was 1190 ± 40 nM. The “hNTS2 Selectivity” value in experiment [2] (Table 2) is 0.3.

Turning to `CC[C@H](C)[C@H](NC(=O)[C@H](Cc1ccc(O)cc1)NC(=O)[C@@H]1CCCN1C(=O)[C@H](N)CCCN)C(=O)N[C@@H](CC(C)C)C(=O)O` [NT35, [D-Orn^9]NT(9-13)] (H-[dOrn]PYIL-OH; N-terminus and C-terminus assumed), the “hNTS1 Selectivity” value in experiment [1] was 19.1. Also, the Kd in experiment [1] (text, read-out: Kd at hNTS1) was found to be 550 nM; in experiment [2] (setting [5]), 10000 nM; in experiment [2] (text, read-out: Kd at hNTS2) it was 10500 nM. Besides, the “hNTS2 Selectivity” value in experiment [2] (Table 2) is reported as 0.1.

Regarding `CC[C@H](C)[C@H](NC(=O)[C@@H](Cc1ccc(O)cc1)NC(=O)[C@@H]1CCCN1C(=O)[C@H](CCCN)NC(=O)[C@@H](N)CCCNC(=N)N)C(=O)N[C@@H](CC(C)C)C(=O)O` [NT36, [L-Orn^9,D-Tyr^11]NT(8-13)] (H-R[Orn]P[dY]IL-OH; N-terminus and C-terminus assumed), in experiment [1], the “binding / Kd at hNTS1 in words” value was “no detectable binding”. In addition, the Kd in experiment [2] (setting [4]) is 1160 ± 20 nM. In addition, the “Kd at hNTS2 in words” value in experiment [2] (text b54) is listed as “micromolar Kd's”.

Turning to `CC[C@H](C)[C@H](NC(=O)[C@@H](Cc1ccc(O)cc1)NC(=O)[C@@H]1CCCN1C(=O)[C@@H](CCCN)NC(=O)[C@@H](N)CCCNC(=N)N)C(=O)N[C@@H](CC(C)C)C(=O)O` [NT37, [D-Orn^9,D-Tyr^11]NT(8-13)] (H-R[dOrn]P[dY]IL-OH; N-terminus and C-terminus assumed), the “binding / Kd at hNTS1 in words” value in experiment [1] was “no detectable binding”. The Kd in experiment [2] (setting [4]) turned out to be 1800 ± 100 nM. Moreover, the “Kd at hNTS2 in words” value in experiment [2] (text b54) is listed as “micromolar Kd's”.

On to `CC[C@H](C)[C@H](NC(=O)[C@H](Cc1ccc(O)cc1)NC(=O)[C@@H]1CCCN1C(=O)[C@H](CCCN)NC(=O)[C@H](CCCNC(=N)N)NC(=O)[C@@H]1CCCN1C(=O)[C@H](CCCCN)NC(=O)[C@H](CC(N)=O)NC(=O)[C@H](CCC(=O)O)NC(=O)[C@H](Cc1ccc(O)cc1)NC(=O)[C@H](CC(C)C)NC(=O)[C@@H]1CCC(=O)N1)C(=O)N[C@@H](CC(C)C)C(=O)O` [NT60, [L-Orn^9]NT(1-13)] ([pGlu]LYENKPR[Orn]PYIL-OH; C-terminus assumed), for which, in experiment [1], the “hNTS1 Selectivity” value is given as 5.4. In addition, the Kd in experiment [1] (setting [3]) was determined as 3.2 ± 0.1 nM; in experiment [2] (setting [4]), 17 ± 2 nM. Besides, in experiment [2] (Table 2), the “hNTS2 Selectivity” value was determined as 0.2.

`CC[C@H](C)[C@H](NC(=O)[C@H](Cc1ccc(O)cc1)NC(=O)[C@@H]1CCCN1C(=O)[C@@H](CCCN)NC(=O)[C@H](CCCNC(=N)N)NC(=O)[C@@H]1CCCN1C(=O)[C@H](CCCCN)NC(=O)[C@H](CC(N)=O)NC(=O)[C@H](CCC(=O)O)NC(=O)[C@H](Cc1ccc(O)cc1)NC(=O)[C@H](CC(C)C)NC(=O)[C@@H]1CCC(=O)N1)C(=O)N[C@@H](CC(C)C)C(=O)O` [NT61, [D-Orn^9]NT(1-13)] ([pGlu]LYENKPR[dOrn]PYIL-OH; C-terminus assumed): in experiment [1], the “hNTS1 Selectivity” value was found to be 4.4. Also, the results for the Kd in experiment [1] (setting [3]) and in experiment [2] (setting [5]) were 1500 ± 100 nM and 6600 nM, respectively. In experiment [2] (Table 2), the “hNTS2 Selectivity” value turned out to be 0.2.

Take `CC[C@H](C)[C@H](NC(=O)[C@H](Cc1cccc2ccccc12)NC(=O)[C@@H]1CCCN1C(=O)[C@H](CCCNC(=N)N)NC(=O)[C@H](CCCNC(=N)N)NC(=O)[C@@H]1CCCN1C(=O)[C@H](CCCCN)NC(=O)[C@H](CC(N)=O)NC(=O)[C@H](CCC(=O)O)NC(=O)[C@H](Cc1ccc(O)cc1)NC(=O)[C@H](CC(C)C)NC(=O)[C@@H]1CCC(=O)N1)C(=O)N[C@@H](CC(C)C)C(=O)O` [NT62, [L-3,1-Nal^11]NT(1-13)] ([pGlu]LYENKPRRP[1Nal]IL-OH; C-terminus assumed): in experiment [1], the “hNTS1 Selectivity” value worked out at 1.7. The Kd in experiment [1] (setting [3]) worked out at 8.4 ± 0.3 nM; in experiment [2] (setting [4]), 14.2 ± 0.5 nM. Besides, the “hNTS2 Selectivity” value in experiment [2] (Table 2) turned out to be 0.6.

For the origin of these results see patent US20110263507A1 (priority 2007, published 2011).
